Source: ChEMBL document CHEMBL5512665, “A CARM1 Inhibitor Potently Suppresses Breast Cancer Both In Vitro and In Vivo” (J Med Chem, 2024)
pEC50: −log10 of the molar value. Calls of active or inactive are those of the source. No cut-off for these calls is given here.

Assays:
MCF7 [1] = experiment: Synergistic antitumor activity against human MCF7 cells xenografted in BALB/C mouse assessed as downregulation of CCND1 gene expression at 25 mg/kg,ip administrated every other day for 15 days in presence of 5 mg/kg tamoxifen oral administration by RT-qPCR analysis; type: functional, organism-based; conditions: time 15.0 day
MCF7 [2] = experiment: Synergistic antiproliferative activity against human MCF7 cells assessed as downregulation of FOXC1 gene expression at 2.5 uM incubated for 6 hrs in presence of fulvestrant by RT-qPCR analysis; type: functional, cell-based
MCF7 [3] = experiment: Antitumor activity against human MCF7 cells xenografted in BALB/C mouse assessed as downregulation of PGR gene expression at 25 mg/kg,ip administrated every other day for 29 days by RT-qPCR analysis; type: functional, organism-based; conditions: time 29.0 day
4T1 [4] = experiment: Antitumor activity against mouse 4T1 cells implanted in BALB/C mouse assessed as downregulation of PGR gene expression at 50 mg/kg,ip administrated daily for 14 days by RT-qPCR analysis; type: functional, organism-based; conditions: time 14.0 day
MCF7 [5] = experiment: Potentiation of etoposide induced antiproliferative activity against human MCF7 cells assessed as upregulation of DDX58 gene expression at 2.5 uM in presence of etoposide by RT-qPCR analysis; type: functional, cell-based
[6] = Toxicity in BALB/C mouse implanted with mouse 4T1 cells assessed as change in lung morphology at 25 mg/kg,ip administrated daily for 14 days; type: organism-based; conditions: in vivo, 336 h, time 14 day
[7] = Toxicity in BALB/C mouse xenografted with human MCF7 cells assessed as change in lung morphology at 50 mg/kg,ip administrated every other day for 29 days; type: organism-based; conditions: in vivo, 696 h, time 29 day
T47D = experiment: Antiproliferative activity against human T47D cells assessed as reduction in cell growth incubated for 7 days by celltiter 96 aqueous one solution cell proliferation assay; conditions: 168 h
MCF7 [8] = experiment: Antiproliferative activity against human MCF7 cells assessed as reduction in cell growth incubated for 7 days by celltiter 96 aqueous one solution cell proliferation assay; conditions: MCF7, 168 h
MCF7 [9] = experiment: Potentiation of etoposide induced antiproliferative activity against human MCF7 cells assessed as upregulation of CCL5 gene expression at 2.5 uM in presence of etoposide by RT-qPCR analysis; type: functional, cell-based
4T1 [10] = experiment: Antitumor activity against mouse 4T1 cells implanted in BALB/C mouse assessed as downregulation of N-Myc gene expression at 50 mg/kg,ip administrated daily for 14 days by RT-qPCR analysis; type: functional, organism-based; conditions: time 14.0 day
4T1 [11] = experiment: Potentiation of etoposide induced antiproliferative activity against mouse 4T1 cells assessed as upregulation of IFNalpha gene expression at 2.5 uM in presence of etoposide by RT-qPCR analysis; type: functional, cell-based
MCF7 [12] = experiment: Antitumor activity against human MCF7 cells xenografted in BALB/C mouse assessed as downregulation of GREB1 gene expression at 50 mg/kg,ip administrated every other day for 29 days by RT-qPCR analysis; type: functional, organism-based; conditions: time 29.0 day
HCC1806 = experiment: Antiproliferative activity against human HCC1806 cells assessed as reduction in cell growth incubated for 7 days by celltiter 96 aqueous one solution cell proliferation assay; conditions: HCC1806, 168 h
[13] = Toxicity in BALB/C mouse implanted with mouse 4T1 cells assessed as change in kidney morphology at 25 mg/kg,ip administrated daily for 14 days; type: organism-based; conditions: in vivo, 336 h, time 14 day
4T1 [14] = experiment: Potentiation of etoposide induced antitumor activity against mouse 4T1 cells implanted in BALB/C mouse assessed as upregulation of CCL5 gene expression at 25 mg/kg,ip administrated daily for 12 days in presence of 8 mg/kg etoposide administration by RT-qPCR analysis; type: functional, organism-based; conditions: time 12.0 day
MDA-MB-231 [15] = experiment: Antitumor activity against human MDA-MB-231 cells xenografted in BALB/C mouse assessed as reduction of tumor weight at 25 mg/kg,ip administrated daily for 11 days; type: functional, organism-based; conditions: time 11.0 day
MCF7 [16] = experiment: Antitumor activity against human MCF7 cells xenografted in BALB/C mouse assessed as upregulation of IFNalpha gene expression at 25 mg/kg,ip administrated every other day for 29 days by RT-qPCR analysis; type: functional, organism-based; conditions: time 29.0 day
MDA-MB-231 [17] = experiment: Antiproliferative activity against human MDA-MB-231 cells assessed as reduction in cell growth incubated for 7 days by celltiter 96 aqueous one solution cell proliferation assay; conditions: MDA-MB-231, 168 h
MCF7 [18] = experiment: Antitumor activity against human MCF7 cells xenografted in BALB/C mouse assessed as downregulation of N-Myc gene expression at 25 mg/kg,ip administrated every other day for 29 days by RT-qPCR analysis; type: functional, organism-based; conditions: time 29.0 day
4T1 [19] = experiment: Antitumor activity against mouse 4T1 cells implanted in BALB/C mouse assessed as downregulation of CCND1 gene expression at 50 mg/kg,ip administrated daily for 14 days by RT-qPCR analysis; type: functional, organism-based; conditions: time 14.0 day
[20] = Toxicity in BALB/C mouse xenografted with human MCF7 cells assessed as change in spleen morphology at 50 mg/kg,ip administrated every other day for 29 days; type: organism-based; conditions: in vivo, 696 h, time 29 day
MCF7 [21] = experiment: Synergistic antitumor activity against human MCF7 cells xenografted in BALB/C mouse assessed as downregulation of N-Myc gene expression at 25 mg/kg,ip administrated every other day for 15 days in presence of 5 mg/kg tamoxifen oral administration by RT-qPCR analysis; type: functional, organism-based; conditions: time 15.0 day
MCF7 [22] = experiment: Antitumor activity against human MCF7 cells xenografted in BALB/C mouse assessed as downregulation of TFF1 gene expression at 25 mg/kg,ip administrated every other day for 29 days by RT-qPCR analysis; type: functional, organism-based; conditions: time 29.0 day
MCF7 [23] = experiment: Induction of cell cycle arrest in human MCF7 cells at 2.5 to 10 uM incubated overnight by propidium iodide staining based flow cytometry; type: functional; conditions: dose 2.5-10 µM
[24] = Toxicity in BALB/C mouse xenografted with human MCF7 cells assessed as change in kidney morphology at 25 mg/kg,ip administrated every other day for 29 days; type: organism-based; conditions: in vivo, 696 h, time 29 day
MDA-MB-231 [25] = experiment: Antitumor activity against human MDA-MB-231 cells xenografted in BALB/C mouse assessed as inhibition of tumor growth at 25 mg/kg,ip administrated daily for 11 days; type: functional, organism-based; conditions: time 11.0 day
4T1 [26] = experiment: Potentiation of etoposide induced antiproliferative activity against mouse 4T1 cells assessed as upregulation of IFIT1 gene expression at 2.5 uM in presence of etoposide by RT-qPCR analysis; type: functional, cell-based
[27] = Toxicity in BALB/C mouse xenografted with human MDA-MB-231 cells assessed as change in spleen morphology at 25 mg/kg,ip administrated daily for 11 days; type: organism-based; conditions: in vivo, 264 h, time 11 day
MCF7 [28] = experiment: Antitumor activity against human MCF7 cells xenografted in BALB/C mouse assessed as upregulation of CCL5 gene expression at 50 mg/kg,ip administrated every other day for 29 days by RT-qPCR analysis; type: functional, organism-based; conditions: time 29.0 day
MCF7 [29] = experiment: Antitumor activity against human MCF7 cells xenografted in BALB/C mouse assessed as downregulation of CCND1 gene expression at 25 mg/kg,ip administrated every other day for 29 days by RT-qPCR analysis; type: functional, organism-based; conditions: time 29.0 day
[30] = Toxicity in BALB/C mouse implanted with mouse 4T1 cells assessed as change in spleen morphology at 50 mg/kg,ip administrated daily for 14 days; type: organism-based; conditions: in vivo, 336 h, time 14 day
MCF7 [31] = experiment: Synergistic antiproliferative activity against human MCF7 cells assessed as downregulation of FOXC1 gene expression at 2.5 uM incubated for 6 hrs in presence of tamoxifen by RT-qPCR analysis; type: functional, cell-based

For `Cc1ccc(-c2nc(N3CCN(CCN(C)C)CC3)ncc2-c2ccoc2)cc1.Cl.Cl`, the Activity (MCF7 [1]) was “Active”, the Activity (MCF7 [2]) was “Active” and the Activity (MCF7 [3]) was “Active”. The Activity (4T1 [4]) was “Active”, the Activity (MCF7 [5]) was “Active” and the Activity [6] was “Non-Toxic”. The Activity [7] was “Non-Toxic”, the pEC50 (T47D) was 5.32 and the pEC50 (MCF7 [8]) was 5.75. The Activity (MCF7 [9]) was “Active”, the Activity (4T1 [10]) was “Active” and the Activity (4T1 [11]) was “Active”. For the same molecule, the Activity (MCF7 [12]) was “Active”, the pEC50 (HCC1806) was 5.55 and the Activity [13] was “Non-Toxic”. The Activity (4T1 [14]) was “Active”, the Activity (MDA-MB-231 [15]) was “Active” and the Activity (MCF7 [16]) was “Active”. For the same molecule, the pEC50 (MDA-MB-231 [17]) was 5.43, the Activity (MCF7 [18]) was “Active” and the Activity (4T1 [19]) was “Active”. The Activity [20] was “Non-Toxic”, the Activity (MCF7 [21]) was “Active” and the Activity (MCF7 [22]) was “Active”. For the same molecule, the Activity (MCF7 [23]) was “Active”, the Activity [24] was “Non-Toxic” and the Activity (MDA-MB-231 [25]) was “Active”. For the same molecule, the Activity (4T1 [26]) was “Active”, the Activity [27] was “Non-Toxic” and the Activity (MCF7 [28]) was “Active”. The Activity (MCF7 [29]) was “Active”, the Activity [30] was “Non-Toxic” and the Activity (MCF7 [31]) was “Active”.
